Test results reported in patent publication US20230141887A1, “CRYSTAL FORM OF DIAZASPIROPYRAN COMPOUND” (MEDSHINE DISCOVERY INC., priority 2020, published 2023).

Assays:
FLT3(ITD, D835V) = biological target: T1, FLT3(ITD, D835V) (Homo sapiens, UniProt P36888, D835V, form not given); format: binding
T1 construct: fused on or other part: DNA tag for the qPCR read-out (the KINOMEscan format)
T1 sequence (P36888 1-993 D835V): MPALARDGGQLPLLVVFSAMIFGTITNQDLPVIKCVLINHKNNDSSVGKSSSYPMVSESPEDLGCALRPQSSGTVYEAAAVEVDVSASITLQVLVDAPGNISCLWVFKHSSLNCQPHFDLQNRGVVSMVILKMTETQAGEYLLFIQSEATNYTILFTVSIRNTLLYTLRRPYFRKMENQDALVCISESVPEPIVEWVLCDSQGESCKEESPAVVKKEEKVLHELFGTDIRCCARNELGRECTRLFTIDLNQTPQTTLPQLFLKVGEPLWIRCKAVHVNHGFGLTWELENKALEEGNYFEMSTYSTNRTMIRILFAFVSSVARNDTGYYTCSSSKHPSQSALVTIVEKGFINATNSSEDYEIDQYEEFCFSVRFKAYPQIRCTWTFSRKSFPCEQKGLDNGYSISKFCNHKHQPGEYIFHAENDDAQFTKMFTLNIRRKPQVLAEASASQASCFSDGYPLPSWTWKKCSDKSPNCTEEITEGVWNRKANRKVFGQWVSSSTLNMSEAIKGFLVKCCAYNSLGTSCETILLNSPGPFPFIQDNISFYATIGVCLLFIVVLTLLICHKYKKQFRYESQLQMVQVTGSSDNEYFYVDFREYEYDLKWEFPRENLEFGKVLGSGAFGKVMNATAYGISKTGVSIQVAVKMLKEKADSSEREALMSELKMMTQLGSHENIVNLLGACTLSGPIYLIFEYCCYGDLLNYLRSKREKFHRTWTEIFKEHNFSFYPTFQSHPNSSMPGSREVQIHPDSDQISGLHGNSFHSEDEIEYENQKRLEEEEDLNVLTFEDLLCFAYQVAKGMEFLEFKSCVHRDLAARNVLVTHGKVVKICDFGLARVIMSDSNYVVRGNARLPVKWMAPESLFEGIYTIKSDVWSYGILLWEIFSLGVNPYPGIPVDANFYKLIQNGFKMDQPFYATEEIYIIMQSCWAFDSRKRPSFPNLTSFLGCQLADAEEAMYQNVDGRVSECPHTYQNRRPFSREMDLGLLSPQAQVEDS
Experimental: (§1) The assay was carried out using KINOMEscan™ technology. The assay compounds were stored in 100% DMSO. The assay was carried out by means of 3-fold dilution and 11-point fitting. All compounds used for Kd determination were dispersed by ultrasound, then directly diluted and tested. All reactions were carried out in a 384-well polypropylene plate. Each portion has a final volume of 0.02 ml. The plate was incubated with shaking at room temperature for 1 hour, and then processed. The kinase concentration in the eluent was finally determined by qPCR method. Kd was obtained by fitting.

FLT3(D835H) = biological target: T2, FLT3(D835H) (Homo sapiens, UniProt P36888, D835H); format: binding
T2 sequence (P36888 27-993 D835H): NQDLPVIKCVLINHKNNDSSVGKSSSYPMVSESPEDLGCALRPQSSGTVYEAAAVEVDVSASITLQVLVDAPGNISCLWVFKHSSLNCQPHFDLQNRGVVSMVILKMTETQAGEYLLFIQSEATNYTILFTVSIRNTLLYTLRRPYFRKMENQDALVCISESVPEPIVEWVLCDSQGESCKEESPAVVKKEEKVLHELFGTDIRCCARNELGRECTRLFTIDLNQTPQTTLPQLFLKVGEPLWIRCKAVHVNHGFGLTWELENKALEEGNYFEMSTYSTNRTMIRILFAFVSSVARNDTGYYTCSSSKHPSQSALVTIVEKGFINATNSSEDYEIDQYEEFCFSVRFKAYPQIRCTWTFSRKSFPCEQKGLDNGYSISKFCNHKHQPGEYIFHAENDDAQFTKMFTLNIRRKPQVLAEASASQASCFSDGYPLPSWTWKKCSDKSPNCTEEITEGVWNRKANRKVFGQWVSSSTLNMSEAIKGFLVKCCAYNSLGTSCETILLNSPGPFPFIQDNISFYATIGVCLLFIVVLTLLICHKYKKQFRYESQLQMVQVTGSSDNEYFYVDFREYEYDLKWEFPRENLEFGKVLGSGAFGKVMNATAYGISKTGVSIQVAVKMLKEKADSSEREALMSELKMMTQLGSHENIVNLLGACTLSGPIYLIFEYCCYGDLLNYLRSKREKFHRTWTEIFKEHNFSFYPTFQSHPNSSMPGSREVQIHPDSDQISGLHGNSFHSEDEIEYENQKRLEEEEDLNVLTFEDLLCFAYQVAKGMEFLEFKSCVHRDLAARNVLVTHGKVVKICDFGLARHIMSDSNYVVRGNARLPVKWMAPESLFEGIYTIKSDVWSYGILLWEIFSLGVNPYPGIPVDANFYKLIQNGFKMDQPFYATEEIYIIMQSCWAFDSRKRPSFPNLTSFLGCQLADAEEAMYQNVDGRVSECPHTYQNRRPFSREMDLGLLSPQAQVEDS
Experimental: as §1

CCc1nc(C(N)=O)c(Nc2ccc(N3CCC4(CCN(C)CC4)CC3)c(C)c2)nc1NC1CCOCC1.O=C(O)C(F)(F)F
Kd (FLT3(ITD, D835V)): 0.2 nM | Kd (FLT3(D835H)): 2.3 nM
